One experiment relates to NCI-H358 (K-Ras G12C). Kind of experiment: CellTiter-Glo cell viability assay, NCI-H358. Type of experiment: cell-based, human. As to conditions: Homo sapiens, NCI-H358, 120 h, NCI-H358, 5-day treatment; class symbols; read-out: Additional H358 Cell Viability assay data (K-Ras G12C, IC50). The method, boiled down:
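Compounds were dispensed directly onto K-Ras mutant cells and incubated until day 5, then plates were equilibrated to room temperature for about 30 minutes before CellTiter-Glo luminescence. Signals were normalized as (sample/average DMSO)*100 and fitted by four-parameter logistic fit.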

A further experiment has as its target KRAS G12D (Homo sapiens (Human), UniProt P01116+P62937, G12D). Kind of experiment: Ras-Raf (BRAF RBD) disruption / FRET / MOA assay, KRAS G12D. The settings on record: Ras-Raf disruption/FRET/MOA assay; class symbols; read-out: KRAS G12D FRET data IC50. The class given is biochemical. The method, boiled down: (§1)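 Compounds, top final concentration 30 μM in 10-point 3-fold series, incubated 3 hours at 25° C with nucleotide-loaded Ras, cyclophilin A and BRAF RBD.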

Another experiment addresses KRAS G12V (Homo sapiens (Human), UniProt P01116+P62937, G12V). Kind of experiment: Ras-Raf (BRAF RBD) disruption / FRET / MOA assay, KRAS G12V. The class given is biochemical. The settings on record: read-out: IC50* KRAS G12V FRET data. The method, boiled down:
as §1

The next experiment deals with KRAS G13D (Homo sapiens (Human), UniProt P01116+P62937, G13D). The experiment can be described thus: Ras-Raf (BRAF RBD) disruption / FRET / MOA assay, KRAS G13D. As to conditions: read-out: IC50* KRAS G13D FRET data. Type of experiment: biochemical. The method, boiled down: as §1
The next experiment deals with K-Ras G13C (Homo sapiens (Human), UniProt P01116+P62937, G13C). Kind of experiment: Ras-Raf (BRAF RBD) disruption / FRET / MOA assay, KRAS G13C. The class given is biochemical. As to conditions: KRAS G13C; Ras-Raf disruption/FRET/MOA assay; read-out: IC50* KRAS G13C FRET data. The method, boiled down:
as §1

The next experiment addresses KRAS G12S (Homo sapiens (Human), UniProt P01116+P62937, G12S). Kind of experiment: Ras-Raf (BRAF RBD) disruption / FRET / MOA assay, KRAS G12S. Type of experiment: biochemical. As to conditions: Ras-Raf disruption/FRET/MOA assay; class symbols; read-out: KRAS G12S FRET data IC50. The method, boiled down: as §1
A further experiment addresses K-Ras G12C (Homo sapiens (Human), UniProt P01116+P62937, G12C). The experiment can be described thus: Ras-Raf (BRAF RBD) disruption / FRET / MOA assay, KRAS G12C. Type of experiment: biochemical. As to conditions: KRAS G12C; Ras-Raf disruption/FRET/MOA assay; read-out: IC50* KRAS G12C FRET data. The gist of the method: as §1
For another experiment, the target named is NRAS G12C (Homo sapiens (Human), UniProt P01111+P62937, G12C). The experiment can be described thus: Ras-Raf (BRAF RBD) disruption / FRET / MOA assay, NRAS G12C. The settings on record: read-out: IC50* NRAS G12C FRET data. Type of experiment: biochemical. The gist of the method: as §1
In experiment [1] the test system is NCI-H358 cells (K-Ras G12C). The experiment can be described thus: Potency assay: pERK in NCI-H358 cells. The class given is cell-based, human. As to conditions: Homo sapiens, NCI-H358; H358 KRAS G12C; read-out: pERK EC50. The method, boiled down: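 Inhibition of cellular pERK after a 4 h treatment, detected by AlphaLISA or In-Cell Western. IC50 from a four-parameter concentration-response fit.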

The target in the next experiment is KRAS WT (Homo sapiens (Human), UniProt P01116+P62937). The experiment can be described thus: Ras-Raf (BRAF RBD) disruption / FRET / MOA assay, KRAS WT. Type of experiment: biochemical. As to conditions: read-out: IC50* KRAS WT FRET data. The gist of the method:
as §1

This passage reports IC50 and EC50 results from patent publication US11566007B2, “Ras inhibitors” (Revolution Medicines, Inc., priority 2019, dated 2023).

Molecules are shown by their SMILES. “And” between values parts separate entries of the source, which are not always exact repeats. Equal values may be shown once. Some results are limits rather than exact numbers.

Chain of K-Ras G12C (P01116-2 other isoform, or with tags, fused parts or gaps G12C): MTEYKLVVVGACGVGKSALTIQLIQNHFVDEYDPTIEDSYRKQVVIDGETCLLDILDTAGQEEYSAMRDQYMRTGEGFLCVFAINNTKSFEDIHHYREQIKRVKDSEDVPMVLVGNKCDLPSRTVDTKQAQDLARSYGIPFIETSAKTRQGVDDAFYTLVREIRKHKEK
Chain of K-Ras G12C (P62937 whole entry): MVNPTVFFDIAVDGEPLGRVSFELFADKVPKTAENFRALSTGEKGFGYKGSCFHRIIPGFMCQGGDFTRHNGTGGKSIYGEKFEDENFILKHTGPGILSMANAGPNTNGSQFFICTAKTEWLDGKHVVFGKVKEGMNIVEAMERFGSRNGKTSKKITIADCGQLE
Chain of KRAS G12D (P01116-2 other isoform, or with tags, fused parts or gaps G12D): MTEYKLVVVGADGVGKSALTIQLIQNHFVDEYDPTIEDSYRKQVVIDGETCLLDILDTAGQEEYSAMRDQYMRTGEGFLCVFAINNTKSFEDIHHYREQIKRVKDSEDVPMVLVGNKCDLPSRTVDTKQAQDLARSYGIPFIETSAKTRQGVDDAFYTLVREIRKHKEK
Chain of KRAS G12D (P62937 whole entry): as the sequence (P62937 whole entry) above
Chain of KRAS G12V (P01116-2 other isoform, or with tags, fused parts or gaps G12V): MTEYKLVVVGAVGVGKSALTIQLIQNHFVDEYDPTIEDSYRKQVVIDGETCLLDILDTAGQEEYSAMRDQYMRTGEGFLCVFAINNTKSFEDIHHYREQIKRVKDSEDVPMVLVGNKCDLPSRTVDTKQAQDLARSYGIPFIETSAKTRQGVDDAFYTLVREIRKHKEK
Chain of KRAS G12V (P62937 whole entry): as the sequence (P62937 whole entry) above
Chain of K-Ras G13C (P01116-2 other isoform, or with tags, fused parts or gaps G13C): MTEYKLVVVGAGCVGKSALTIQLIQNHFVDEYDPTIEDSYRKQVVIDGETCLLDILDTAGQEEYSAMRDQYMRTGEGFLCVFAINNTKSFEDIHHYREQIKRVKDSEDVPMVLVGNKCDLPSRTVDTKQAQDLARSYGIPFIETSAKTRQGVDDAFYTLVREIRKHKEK
Chain of K-Ras G13C (P62937 whole entry): as the sequence (P62937 whole entry) above
Chain of KRAS G13D (P01116-2 other isoform, or with tags, fused parts or gaps G13D): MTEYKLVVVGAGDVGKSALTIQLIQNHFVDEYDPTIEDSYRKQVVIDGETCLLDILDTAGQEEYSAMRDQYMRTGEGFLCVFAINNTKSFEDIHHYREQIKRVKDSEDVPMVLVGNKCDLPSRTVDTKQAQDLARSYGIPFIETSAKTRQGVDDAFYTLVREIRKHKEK
Chain of KRAS G13D (P62937 whole entry): as the sequence (P62937 whole entry) above
Chain of KRAS G12S (P01116-2 other isoform, or with tags, fused parts or gaps G12S): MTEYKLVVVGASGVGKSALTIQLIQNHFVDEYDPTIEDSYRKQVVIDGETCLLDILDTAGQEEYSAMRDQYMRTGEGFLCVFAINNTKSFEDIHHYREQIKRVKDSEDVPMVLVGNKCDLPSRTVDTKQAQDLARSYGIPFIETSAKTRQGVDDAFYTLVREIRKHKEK
Chain of KRAS G12S (P62937 whole entry): as the sequence (P62937 whole entry) above
Chain of KRAS WT (P01116-2 other isoform, or with tags, fused parts or gaps): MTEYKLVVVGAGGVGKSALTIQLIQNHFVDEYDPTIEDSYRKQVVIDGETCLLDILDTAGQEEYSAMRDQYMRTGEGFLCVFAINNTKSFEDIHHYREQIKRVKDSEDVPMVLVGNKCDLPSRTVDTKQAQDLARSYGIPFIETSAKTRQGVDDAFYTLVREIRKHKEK
Chain of KRAS WT (P62937 whole entry): as the sequence (P62937 whole entry) above
Chain of NRAS G12C (P01111 whole entry G12C): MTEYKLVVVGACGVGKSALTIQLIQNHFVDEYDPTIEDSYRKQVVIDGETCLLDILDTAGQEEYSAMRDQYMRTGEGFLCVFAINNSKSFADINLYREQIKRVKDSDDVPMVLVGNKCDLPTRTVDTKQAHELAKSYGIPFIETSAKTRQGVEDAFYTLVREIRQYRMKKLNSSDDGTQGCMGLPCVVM
Chain of NRAS G12C (P62937 whole entry): as the sequence (P62937 whole entry) above

`CCn1c(-c2cccnc2[C@H](C)OC)c2c3cc(ccc31)-c1cc(O)cc(c1)C[C@H](NC(=O)[C@H](C(C)C)N(C)C(=O)[C@H]1CCN(C(=O)C#CCN(C)C)C1)C(=O)N1CCC[C@H](N1)C(=O)OCC(C)(C)C2` (atropisomer, axis not shown) [Example A131]: the IC50 in the experiment with NCI-H358 (K-Ras G12C) was below 10 nM; at KRAS G12D, 1000 to 10000 nM and 100 to 1000 nM; at KRAS G12V, 100 to 1000 nM and 1000 to 10000 nM; on KRAS G13D, 100 to 1000 nM and 1000 to 10000 nM; at K-Ras G13C, 10 to 100 nM and < 10 nM; at KRAS G12S it was 100 to 1000 nM and 1000 to 10000 nM. Moreover, the concentration for half-maximal inhibition (IC50) is below 10 nM on K-Ras G12C; below 10 nM at NRAS G12C; 100 to 1000 nM and 1000 to 10000 nM at KRAS WT. Further, the EC50 in experiment [1] is below 5000 nM.

For the compound `CCn1c(-c2cccnc2COC)c2c3cc(ccc31)-c1cc(O)cc(c1)C[C@H](NC(=O)[C@H](C(C)C)N(C)C(=O)[C@H]1C[C@@H](C)N(C(=O)C#CCN(C)C)C1)C(=O)N1CCC[C@H](N1)C(=O)OCC(C)(C)C2` [Example A175], the IC50 in the experiment on NCI-H358 (K-Ras G12C) is below 10 nM; at KRAS G12D, 1000 to 10000 nM; at KRAS G12V it was 1000 to 10000 nM; at KRAS G13D, 1000 to 10000 nM; at K-Ras G13C it was below 10 nM; on KRAS G12S, 1000 to 10000 nM. In addition, the IC50 on K-Ras G12C was below 10 nM; at NRAS G12C, below 10 nM; on KRAS WT, 1000 to 10000 nM. Further, the 50% effective concentration (EC50) in experiment [1] is below 5000 nM.

As to `C=CC(=O)N1CC(OCC(C(=O)N[C@H]2Cc3cccc(c3)-c3ccc4c(c3)c(c(-c3cccnc3[C@H](C)OC)n4CC(F)(F)F)CC(C)(C)COC(=O)[C@@H]3CCCN(N3)C2=O)C(C)C)C1` (mixture of isomers) [Example A453], the concentration for half-maximal inhibition (IC50) with NCI-H358 (K-Ras G12C) is 100 to 1000 nM; on KRAS G12D, above 10000 nM; at KRAS G12V, above 10000 nM; at KRAS G13D, above 10000 nM; on K-Ras G13C, above 10000 nM; at KRAS G12S, above 10000 nM. Further, the values for the IC50 at K-Ras G12C, at NRAS G12C and at KRAS WT were 1000 to 10000 nM, 1000 to 10000 nM and above 10000 nM, respectively. Moreover, the EC50 in experiment [1] is below 5000 nM.

On to `C=CC(=O)N1C[C@@H](C)N(C(=O)N(C)[C@H](C(=O)N[C@H]2Cc3nc(cs3)-c3ccc4c(c3)c(c(-c3cccnc3[C@H](C)OC)n4CC)CC(C)(C)COC(=O)[C@@H]3CCCN(N3)C2=O)C(C)C)C[C@@H]1C` (atropisomer, axis not shown) [Example A418], for which the IC50 in the experiment on NCI-H358 (K-Ras G12C) was 10 to 100 nM; at KRAS G12D it was 100 to 1000 nM; at KRAS G12V it was 10 to 100 nM; at KRAS G13D, 100 to 1000 nM; on K-Ras G13C, 10 to 100 nM; at KRAS G12S, 10 to 100 nM. Moreover, the IC50 on K-Ras G12C, on NRAS G12C and on KRAS WT was 10 to 100 nM in each case. Also, the EC50 in [1] is below 5000 nM.

`CCn1c(-c2cccnc2COC)c2c3cc(ccc31)-c1cc(O)cc(c1)C[C@H](NC(=O)[C@H](C(C)C)N(C)C(=O)[C@H]1CCN(C(=O)/C=C/CN3CCOCC3)C1)C(=O)N1CCC[C@H](N1)C(=O)OCC(C)(C)C2` [Example A134]: the concentration for half-maximal inhibition (IC50) in the experiment on NCI-H358 (K-Ras G12C) lay within 100 to 1000 nM; at KRAS G12D, 1000 to 10000 nM; on KRAS G12V, 1000 to 10000 nM; at KRAS G13D it was 1000 to 10000 nM; at K-Ras G13C, 1000 to 10000 nM; on KRAS G12S, 1000 to 10000 nM. Besides, the IC50 on K-Ras G12C lay in the range of 10 to 100 nM; on NRAS G12C, 10 to 100 nM; at KRAS WT it was 1000 to 10000 nM. In experiment [1], the EC50 is below 5000 nM.

For `C=CC(=O)N1CC[C@H](C(=O)N(C)[C@H](C(=O)N[C@H]2Cc3cccc(c3)-c3ccc4c(c3)c(c(-c3cccnc3[C@H](C)OC)n4CC)CC(C)(C)COC(=O)[C@@H]3CCCN(N3)C2=O)C2CCC2)C1` (atropisomer, axis not shown) [Example A321], the IC50 in the experiment on NCI-H358 (K-Ras G12C) was 10 to 100 nM; on KRAS G12D, above 10000 nM; on KRAS G12V, 1000 to 10000 nM; at KRAS G13D it was 1000 to 10000 nM; on K-Ras G13C, 1000 to 10000 nM; on KRAS G12S, 1000 to 10000 nM. In addition, the 50% inhibitory concentration (IC50) was 100 to 1000 nM at K-Ras G12C, 100 to 1000 nM on NRAS G12C and 1000 to 10000 nM at KRAS WT. Besides, the concentration for a half-maximal effect (EC50) in [1] was below 5000 nM.
